Reference: ChEMBL document CHEMBL5316282, “Small-Molecule Cyanamide Pan-TEAD·YAP1 Covalent Antagonists” (J Med Chem, 2023)
The source made the active and inactive calls. The calls are words filed in the database; no cut-off is given here.

What was measured:
[1] = tested on: MDA-MB-468; test: Inhibition of TEAD in human MDA-MB-468 cells assessed as maximal inhibition of CTGF transcriptional level at 0.01 to 100 uM incubated for 24 hrs by qRT-PCR assay relative to control; assay type: cell-based; details: dose 0.01-100 µM
[2] = target: T1, Transcriptional enhancer factor TEF-1 (Homo sapiens, UniProt P28347); test: Displacement of FAM- labeled YAP1 peptide (60 to 99 residues) from human TEAD1 (209 to 426 residues) expressed in Escherichia coli BL21 (DE3) cells incubated for 24 hrs by fluorescence polarization-based competitive binding assay; details: read-out: IC50
[3] = target: T2, Transcriptional enhancer factor TEF-4 (Homo sapiens, UniProt Q15562); test: Displacement of FAM- labeled YAP1 peptide (60 to 99 residues) from human TEAD2 (217 to 447 residues) expressed in Escherichia coli BL21 (DE3) cells assessed as maximum inhibition at 0.2 to 100 uM incubated for 24 hrs by fluorescence polarization-based competitive binding assay relative to control; details: dose 0.2-100 µM
[4] = target: T2, Transcriptional enhancer factor TEF-4; test: Displacement of FAM- labeled YAP1 peptide (60 to 99 residues) from human TEAD2 (217 to 447 residues) expressed in Escherichia coli BL21 (DE3) cells incubated for 24 hrs by fluorescence polarization-based competitive binding assay
[5] = Inhibition of TEAD in human MDA-MB-468 cells assessed as inhibition of CTGF transcriptional level incubated for 24 hrs by qRT-PCR assay; assay type: cell-based; details: Homo sapiens, MDA-MB-468, 24 h; read-out: IC50
[6] = target: T3, Transcriptional enhancer factor TEF-3 (Homo sapiens, UniProt Q15561); test: Displacement of FAM- labeled YAP1 peptide (60 to 99 residues) from human TEAD4 (217 to 434 residues) expressed in Escherichia coli BL21 (DE3) cells incubated for 24 hrs by fluorescence polarization-based competitive binding assay
[7] = target: T3, Transcriptional enhancer factor TEF-3; test: Inhibition of TEAD4 (unknown origin) transfected in human HEK293 cells co-transfected with renilla plasmid assessed as inhibition of transcriptional activity incubated for 24 hrs by dual Glo-luciferase reporter assay; assay type: cell-based; details: read-out: IC50
[8] = target: T4, Transcriptional enhancer factor TEF-5 (Homo sapiens, UniProt Q99594); test: Displacement of FAM- labeled YAP1 peptide (60 to 99 residues) from human TEAD3 (210 to 427 residues) expressed in Escherichia coli BL21 (DE3) cells incubated for 24 hrs by fluorescence polarization-based competitive binding assay
[9] = target: T1, Transcriptional enhancer factor TEF-1; test: Inhibition of TEAD1 (unknown origin) transfected in human HEK293 cells co-transfected with renilla plasmid assessed as inhibition of transcriptional activity incubated for 24 hrs by dual Glo-luciferase reporter assay; assay type: cell-based
[10] = target: T4, Transcriptional enhancer factor TEF-5; test: Inhibition of TEAD3 (unknown origin) transfected in human HEK293 cells co-transfected with renilla plasmid assessed as inhibition of transcriptional activity incubated for 24 hrs by dual Glo-luciferase reporter assay; assay type: cell-based
[11] = target: T2, Transcriptional enhancer factor TEF-4; test: Inhibition of TEAD2 (unknown origin) transfected in human HEK293 cells co-transfected with renilla plasmid assessed as inhibition of transcriptional activity incubated for 24 hrs by dual Glo-luciferase reporter assay; assay type: cell-based
[12] = target: T2, Transcriptional enhancer factor TEF-4; test: Inhibition of TEAD2 (unknown origin) transfected in human HEK293 cells co-transfected with renilla plasmid assessed as maximum inhibition of transcriptional activity at 0.1 to 10 uM incubated for 24 hrs by dual Glo-luciferase reporter assay relative to control; assay type: cell-based; details: dose 0.1-10 µM
[13] = target: T3, Transcriptional enhancer factor TEF-3; test: Inhibition of TEAD4 (unknown origin) transfected in human HEK293 cells co-transfected with renilla plasmid assessed as maximum inhibition of transcriptional activity at 0.1 to 10 uM incubated for 24 hrs by dual Glo-luciferase reporter assay relative to control; assay type: cell-based; details: dose 0.1-10 µM
[14] = tested on: Transcriptional enhancer factor TEF-3 (Homo sapiens), Q15561 [C367S]; test: Displacement of FAM- labeled YAP1 peptide (60 to 99 residues) from human TEAD4 (217 to 434 residues) C367S mutant expressed in Escherichia coli BL21 (DE3) cells at 0.2 to 100 uM incubated for 24 hrs by fluorescence polarization-based competitive binding assay; details: dose 0.2-100 µM
[15] = target: YAP1-TEAD4 (Homo sapiens) (UniProt P46937+Q15561); test: Inhibition of NanoLuc-tagged TEAD4 (unknown origin)-Halo-Tagged YAP1 (unknown origin) protein-protein interaction transfected in HEK293 cells using furimazine as substrate at 10 uM incubated for 2 to 24 hrs by NanoBRET binding assay; assay type: cell-based; details: time 2-24 hrs
[16] = target: T1, Transcriptional enhancer factor TEF-1; test: Inhibition of TEAD1 (unknown origin) transfected in human HEK293 cells co-transfected with renilla plasmid assessed as maximum inhibition of transcriptional activity at 0.1 to 10 uM incubated for 24 hrs by dual Glo-luciferase reporter assay relative to control; assay type: cell-based; details: dose 0.1-10 µM
[17] = target: T3, Transcriptional enhancer factor TEF-3; test: Inhibition of TEAD4 (unknown origin) transfected in human HEK293 cells co-transfected with renilla plasmid assessed as maximum inhibition of transcriptional activity at 0.01 to 100 uM incubated for 24 hrs by dual Glo-luciferase reporter assay relative to control; assay type: cell-based; details: dose 0.01-100 µM

T1 sequence (P28347 whole entry, the tested form may be a part): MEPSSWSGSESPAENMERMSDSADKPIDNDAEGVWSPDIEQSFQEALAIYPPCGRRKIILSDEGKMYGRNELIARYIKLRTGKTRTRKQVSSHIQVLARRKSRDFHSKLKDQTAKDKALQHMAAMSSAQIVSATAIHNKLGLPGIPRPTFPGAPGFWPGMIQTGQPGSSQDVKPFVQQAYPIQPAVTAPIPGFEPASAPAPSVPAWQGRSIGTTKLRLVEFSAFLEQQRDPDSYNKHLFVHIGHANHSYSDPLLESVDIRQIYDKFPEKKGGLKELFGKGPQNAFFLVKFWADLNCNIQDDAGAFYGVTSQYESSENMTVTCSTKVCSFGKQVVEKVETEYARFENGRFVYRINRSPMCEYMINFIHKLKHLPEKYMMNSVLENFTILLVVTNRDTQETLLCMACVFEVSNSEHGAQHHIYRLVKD
T2 sequence (Q15562 whole entry, the tested form may be a part): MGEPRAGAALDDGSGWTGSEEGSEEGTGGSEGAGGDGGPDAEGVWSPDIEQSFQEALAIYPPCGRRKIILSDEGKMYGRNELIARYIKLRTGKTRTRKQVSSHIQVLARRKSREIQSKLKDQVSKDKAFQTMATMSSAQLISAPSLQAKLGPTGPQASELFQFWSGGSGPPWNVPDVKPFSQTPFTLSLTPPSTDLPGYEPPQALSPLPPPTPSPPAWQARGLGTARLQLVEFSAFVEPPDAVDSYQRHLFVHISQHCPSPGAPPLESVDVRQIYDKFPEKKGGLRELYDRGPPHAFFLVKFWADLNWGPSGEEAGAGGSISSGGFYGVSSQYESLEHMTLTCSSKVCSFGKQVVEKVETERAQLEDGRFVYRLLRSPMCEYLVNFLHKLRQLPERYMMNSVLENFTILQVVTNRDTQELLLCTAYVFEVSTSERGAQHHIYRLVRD
T3 sequence (Q15561 whole entry, the tested form may be a part): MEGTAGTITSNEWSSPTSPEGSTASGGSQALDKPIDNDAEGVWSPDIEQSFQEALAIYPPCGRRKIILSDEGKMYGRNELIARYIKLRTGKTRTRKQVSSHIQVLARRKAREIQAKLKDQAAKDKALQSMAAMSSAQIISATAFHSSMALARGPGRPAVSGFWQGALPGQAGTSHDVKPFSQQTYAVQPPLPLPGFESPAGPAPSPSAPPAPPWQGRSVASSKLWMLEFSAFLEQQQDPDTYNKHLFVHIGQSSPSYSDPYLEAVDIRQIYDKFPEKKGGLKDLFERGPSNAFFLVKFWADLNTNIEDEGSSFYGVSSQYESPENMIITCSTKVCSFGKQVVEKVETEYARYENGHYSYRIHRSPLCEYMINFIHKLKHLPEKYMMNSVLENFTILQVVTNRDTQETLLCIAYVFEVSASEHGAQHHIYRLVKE
T4 sequence (Q99594 whole entry, the tested form may be a part): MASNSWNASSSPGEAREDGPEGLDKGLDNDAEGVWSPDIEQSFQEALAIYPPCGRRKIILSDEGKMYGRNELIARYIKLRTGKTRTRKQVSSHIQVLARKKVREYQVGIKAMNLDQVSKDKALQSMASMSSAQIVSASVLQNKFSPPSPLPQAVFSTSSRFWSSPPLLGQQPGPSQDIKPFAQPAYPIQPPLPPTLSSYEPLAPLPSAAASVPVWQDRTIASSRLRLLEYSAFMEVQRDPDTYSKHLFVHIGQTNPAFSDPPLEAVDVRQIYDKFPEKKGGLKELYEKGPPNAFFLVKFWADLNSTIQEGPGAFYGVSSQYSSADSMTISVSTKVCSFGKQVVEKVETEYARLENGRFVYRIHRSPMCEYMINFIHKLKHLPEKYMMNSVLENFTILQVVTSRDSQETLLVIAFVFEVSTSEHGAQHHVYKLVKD
Chain of Transcriptional enhancer factor TEF-3 (Homo sapiens), Q15561 [C367S] (Q15561 whole entry C367S, the tested form may be a part): as the sequence (Q15561 whole entry, the tested form may be a part) above, with C367S counted along it

Row | SMILES | Imax [1] [%] | IC50 [2] [nM] | Imax [3] [%] | IC50 [4] [nM] | IC50 [5] [nM] | IC50 [6] | IC50 [7] [nM] | IC50 [8] | IC50 [9] [nM] | IC50 [10] [nM] | IC50 [11] [nM] | Imax [12] [%] | Imax [13] [%] | inhibition [14] | IC50 ([6]; read-out: IC50) [nM] | inhibition [15] | Imax [16] [%] | Imax [17] [%]
1 | N#CN1Cc2cccc(Nc3ccc(C(F)(F)F)cc3)c2C1 | 59.6 | 200 | 33 | 800 | 1500 | Not Active | 2100 | Not Active | – | – | – | – | – | – | – | – | – | –
2 | N#CN1CC2CCCC(Nc3cccc(C(F)(F)F)c3)C2C1 (stereo not given) | 28.6 | 1600 | 45 | 27600 | 1100 | – | 400 | Not Active | 1600 | 1200 | 2200 | 28.2 | 41.3 | inactive | 51700 | inactive | 40 | 87.3
